Tests used:
Brd2(1) = target: T1, Brd2(1) (Homo sapiens, UniProt P25440); assay: DSF thermal shift; format: binding; conditions: wild type
T1 construct: Plasmids of the eight single BET bromodomain constructs Brd2(1), Brd2(2), Brd3(1), Brd3(2); His6 (N); made in house; host or cells: E. coli BL21(DE3)
Protocol: (§1) DSF assays were performed on a LightCycler®480 from Roche or a Mx3005P Real Time PCR machine from Stratagene. […] SYPRO®Orange from Invitrogen Molecular Probes® was used as a reporter dye to monitor the denaturing process of the proteins. Samples were assayed on a 96-well plate with final protein concentrations of 2 μM for the LightCycler®480 and 6 μM for Mx3005P. Compounds were added at a final concentration of 10 μM for the LightCycler®480 and 30 μM for Mx3005P, while the tetra acetylated histone peptide was added to a final concentration of 100 μM and 300 μM respectively. […] The temperature was raised with a step of 0.6° C. per minute from 37° C. to 95° C. with the LightCycler®480 collecting 39 measurements per ° C., and 1° C. per minute from 25° C. to 95° C. with Mx3005P, collecting fluorescence readings at the end of each interval. Each sample was run in triplicates.
(§2) Collected data was analysed by IGOR Pro 6, a scientific software tool from Wave Metrics, Inc. Analysis was done following the recommendations of Niesen et al.. Fluorescence intensity was plotted as a function of temperature, generating a sigmoidal curve described by a two-state transition from folded to unfolded protein. Curves were fitted by the following sigmoidal equation: […]
(§3) A1 and A2 are the values of minimum and maximum intensities, respectively, x0 is the inflection point and dx is the rate. Fitted curves were differentiated in IGOR Pro 6 and the maximum of the first derivative was identified using the same program. These values correspond to the inflection points of the transition curves and thus to the melting temperatures of the proteins (Tm).

Brd2(2) = target: T2, Brd2(2) (Homo sapiens, UniProt P25440); assay: DSF thermal shift; format: binding; conditions: wild type
T2 construct: Plasmids of the eight single BET bromodomain constructs Brd2(1), Brd2(2), Brd3(1), Brd3(2); His6 (N); made in house; host or cells: E. coli BL21(DE3)
T2 sequence (P25440 344-453 limits assumed): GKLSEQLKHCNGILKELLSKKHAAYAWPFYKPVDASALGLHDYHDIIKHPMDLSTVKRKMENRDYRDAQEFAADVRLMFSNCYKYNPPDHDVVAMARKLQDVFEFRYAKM
Protocol: as §1, §2, §3

Brd2(1) Leu110-Ile = Brd2(1) Leu110-Ile (Homo sapiens, UniProt P25440, L110I); assay: DSF thermal shift; format: binding; design: Plasmids of the eight single BET bromodomain constructs Brd2(1), Brd2(2), Brd3(1), Brd3(2); His6 (N); made in house; host or cells: E. coli BL21(DE3); conditions: mutant
Sequence of Brd2(1) Leu110-Ile (P25440 74-180 L110I limits assumed): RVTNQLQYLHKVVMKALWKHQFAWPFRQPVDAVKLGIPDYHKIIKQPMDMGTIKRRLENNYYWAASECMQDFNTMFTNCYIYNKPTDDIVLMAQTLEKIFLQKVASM
Protocol: as §1, §2, §3

Brd2(1)*(Leu110-Ala) = Brd2(1)*(Leu110-Ala) (Homo sapiens, UniProt P25440, L110A); assay: DSF thermal shift; format: binding; design: Plasmids of the eight single BET bromodomain constructs Brd2(1), Brd2(2), Brd3(1), Brd3(2); His6 (N); made in house; host or cells: E. coli BL21(DE3); conditions: mutant
Sequence of Brd2(1)*(Leu110-Ala) (P25440 74-180 L110A limits assumed): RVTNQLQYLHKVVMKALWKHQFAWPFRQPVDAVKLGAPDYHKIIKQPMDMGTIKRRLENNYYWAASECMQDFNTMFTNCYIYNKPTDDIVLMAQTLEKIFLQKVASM
Protocol: as §1, §2, §3

Brd2(2) Leu383-Ile = Brd2(2) Leu383-Ile (Homo sapiens, UniProt P25440, L383I); assay: DSF thermal shift; format: binding; design: Plasmids of the eight single BET bromodomain constructs Brd2(1), Brd2(2), Brd3(1), Brd3(2); His6 (N); made in house; host or cells: E. coli BL21(DE3); conditions: mutant
Sequence of Brd2(2) Leu383-Ile (P25440 344-453 L383I limits assumed): as the sequence (P25440 344-453 limits assumed) above, with L40I counted along it
Protocol: as §1, §2, §3

Brd2(2)*(Leu383-Ala) = Brd2(2)*(Leu383-Ala) (Homo sapiens, UniProt P25440, L383A); assay: DSF thermal shift; format: binding; design: Plasmids of the eight single BET bromodomain constructs Brd2(1), Brd2(2), Brd3(1), Brd3(2); His6 (N); made in house; host or cells: E. coli BL21(DE3); conditions: mutant
Sequence of Brd2(2)*(Leu383-Ala) (P25440 344-453 L383A limits assumed): as the sequence (P25440 344-453 limits assumed) above, with L40A counted along it
Protocol: as §1, §2, §3

[1] = tested on: WT and mutants (Leu to Ala, Leu to Val and Leu to Ile) of Brd2(2); assay: ITC of compound into protein (FIG. 16); format: binding, human; conditions: 250 μM compound into 25 μM protein; result in words
Protocol: To investigate the utility of the new compounds further, the inventors performed isothermal titration experiments by titrating 250 μM compound solutions (AL, ME-Am1, ET-Am1, ME-Am2, ET-Am2, 9-ME, 9-ET, 9-ME-Am1 and 9-ET-Am1) 25 μM protein solutions (WT and mutants (Leu to Ala, Leu to Val and Leu to Ile) of Brd2(2)).
ITC experiments were carried out on a ITC200 instrument from MicroCal™ Experiments were conducted at 3 different temperatures 15° C., 25° C. and 30° C., while stirring at 1000 rpm. Buffers of proteins, peptide and compounds were matched to 20 mM HEPES pH 7.5 at 25° C. and 100 mM NaCl. Frozen protein was buffer exchanged as described for the DSF experiments. Each titration comprised 1 initial injection of 0.4 μl lasting 0.8 s, followed by 19 injections of 2 μl lasting 4 s each at 2 min intervals. The initial injection was discarded during data analysis. Standard and reverse titrations were conducted depending on the binding partners.
All the data was fitted to a single binding site model using the Microcal LLC ITC200 Origin software provided by the manufacturer to yield enthalpies of binding (ΔH) and binding constants (Kas). Further thermodynamic parameters were calculated from these values (changes in entropy ΔS, changes in free energy AG and dissociation constants (Kds)).

Brd4(1) = target: T3, Brd4(1) (Homo sapiens, UniProt O60885); assay: DSF thermal shift; format: binding; conditions: wild type
T3 construct: Plasmids of the eight single BET bromodomain constructs Brd2(1), Brd2(2), Brd3(1), Brd3(2), Brd4(1), Brd4(2), Brdt(1) and Brdt(2); His6 (N); made in house; host or cells: E. coli BL21(DE3)
Protocol: as §1, §2, §3

Brd4(2) = target: T4, Brd4(2) (Homo sapiens, UniProt O60885); assay: DSF thermal shift; format: binding; conditions: wild type
T4 construct: Plasmids of the eight single BET bromodomain constructs Brd2(1), Brd2(2), Brd3(1), Brd3(2), Brd4(1), Brd4(2), Brdt(1) and Brdt(2); His6 (N); made in house; host or cells: E. coli BL21(DE3)
Protocol: as §1, §2, §3

T1 sequence (P25440 74-180 limits assumed): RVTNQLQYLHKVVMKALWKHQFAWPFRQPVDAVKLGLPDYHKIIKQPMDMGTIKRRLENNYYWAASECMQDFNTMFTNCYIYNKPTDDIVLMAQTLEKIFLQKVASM

Question: Which results are given for `COC(=O)CC1(C)N=C(c2ccc(Cl)cc2)c2cc(OC)ccc2-n2c(C)nnc21` (racemic) [Compound 5, (+−)-methyl 2-(6-(4-chlorophenyl)-8-methoxy-1,4-dimethyl-4H-benzo[f][1,2,4]triazolo[4,3-a][1,4]diazepin-4-yl)acetate]?
Answer: Thermal stabilisation brd2(1) (Brd2(1)): 2.2 ± 0.3 °C; ΔTm Brd2(1) (Brd2(1)): 2.2 ± 0.3 K; Thermal stabilisation brd2(2) (Brd2(2)): 5.3 ± 0.3 °C; ΔTm Brd2(2) (Brd2(2)): 5.3 ± 0.3 K; Thermal stabilisation brd2(1)L110I (Brd2(1) Leu110-Ile): 3.3 ± 0.4 °C; ΔTm Brd2(1)*(Leu110-Ile) (Brd2(1) Leu110-Ile): 3.3 ± 0.3 K; Thermal stabilisation brd2(1)L110A (Brd2(1)*(Leu110-Ala)): 2.9 ± 0.4 °C; ΔTm Brd2(1)*(Leu110-Ala) (Brd2(1)*(Leu110-Ala)): 2.9 ± 0.4 K; Thermal stabilisation brd2(2)V383I (Table 1); Brd2(2) Leu383-Ile (text) (Brd2(2) Leu383-Ile): 6.8 ± 0.1 °C; ΔTm Brd2(2)*(Leu383-Ile) (Brd2(2) Leu383-Ile): 6.8 ± 0.1 K; Thermal stabilisation brd2(2)L383A (Brd2(2)*(Leu383-Ala)): 6.6 ± 0.4 °C; ΔTm Brd2(2)*(Leu383-Ala) (Brd2(2)*(Leu383-Ala)): 6.6 ± 0.4 K

Question: How did the “Selectivity for Brd2(2) mutants relative to wild type by ITC (FIG. 16)” value [1] turn out when `CCNC(=O)[C@H](C)[C@@H]1N=C(c2ccc(Cl)cc2)c2cc(OC)ccc2-n2c(C)nnc21` (racemic) [ME-Am1, (+−) (R)-2-((S)-6-(4-chlorophenyl)-8-methoxy-1-methyl-4H-benzo[f][1,2,4]triazolo[4,3-a][1,4]diazepin-4-yl)-N-ethylpropanamide] was run?
Answer: higher selectivity for the mutants relative to wild types

Question: With `COC(=O)[C@@H](C)[C@@H]1N=C(c2ccc(Cl)cc2)c2cc(OC)ccc2-n2c(C)nnc21` (racemic) [Compound 6, (+−)-methyl (S)-2-((S)-6-(4-chlorophenyl)-8-methoxy-1-methyl-4H-benzo[f][1,2,4]triazolo[4,3-a][1,4]diazepin-4-yl)propanoate] as the compound, how does the “Thermal stabilisation brd2(1)” value (Brd2(1)) read?
Answer: −0.3 ± 0.2 °C

Question: And the “ΔTm Brd2(1)” value (Brd2(1))?
Answer: −0.3 ± 0.2 K

Question: What about the “Thermal stabilisation brd2(2)” value (Brd2(2)) of the same compound?
Answer: 0.2 ± 0.2 °C

Question: And the “ΔTm Brd2(2)” value (Brd2(2))?
Answer: 0.2 ± 0.2 K

Question: And the “Thermal stabilisation brd2(1)L110I” value (Brd2(1) Leu110-Ile)?
Answer: 0.0 ± 0.5 °C

Question: What about the “ΔTm Brd2(1)*(Leu110-Ile)” value (Brd2(1) Leu110-Ile) of the same compound?
Answer: 0.0 ± 0.5 K

Question: What about the “Thermal stabilisation brd2(1)L110A” value (Brd2(1)*(Leu110-Ala)) of the same compound?
Answer: 1.6 ± 0.2 °C

Question: And the “ΔTm Brd2(1)*(Leu110-Ala)” value (Brd2(1)*(Leu110-Ala))?
Answer: 1.6 ± 0.2 K

Question: What about the “Thermal stabilisation brd2(2)V383I (Table 1); Brd2(2) Leu383-Ile (text)” value (Brd2(2) Leu383-Ile) of the same compound?
Answer: 0.3 ± 0.2 °C

Question: What about the “ΔTm Brd2(2)*(Leu383-Ile)” value (Brd2(2) Leu383-Ile) of the same compound?
Answer: 0.3 ± 0.2 K

Question: And the “Thermal stabilisation brd2(2)L383A” value (Brd2(2)*(Leu383-Ala))?
Answer: 0.8 ± 0.6 °C

Question: What about the “ΔTm Brd2(2)*(Leu383-Ala)” value (Brd2(2)*(Leu383-Ala)) of the same compound?
Answer: 0.8 ± 0.6 K

Question: For `CCNC(=O)[C@H](CC)[C@@H]1N=C(c2ccc(Cl)cc2)c2cc(OC)ccc2-n2c(C)nnc21` (racemic) [ET-Am1, (+−) (R)-2-((S)-6-(4-chlorophenyl)-8-methoxy-1-methyl-4H-benzo[f][1,2,4]triazolo[4,3-a][1,4]diazepin-4-yl)-N-ethylbutanamide], which “Selectivity for Brd2(2) mutants relative to wild type by ITC (FIG. 16)” value [1] is on record?
Answer: higher selectivity for the mutants relative to wild types

Question: For `CC[C@@H](C(=O)N(CC)CC)[C@@H]1N=C(c2ccc(Cl)cc2)c2cc(OC)ccc2-n2c(C)nnc21` (racemic) [ET-Am2, (+−) (R)-2-((S)-6-(4-chlorophenyl)-8-methoxy-1-methyl-4H-benzo[f][1,2,4]triazolo[4,3-a][1,4]diazepin-4-yl)-N,N-diethylbutanamide], which “Selectivity for Brd2(2) mutants relative to wild type by ITC (FIG. 16)” value [1] is on record?
Answer: higher selectivity for the mutants relative to wild types

Question: With `COC(=O)[C@H](C)[C@@H]1N=C(c2ccc(Cl)cc2)c2ccc(OC)cc2-n2c(C)nnc21` (racemic) [Compound 9-ME, (+−) methyl (R)-2-((S)-6-(4-chlorophenyl)-9-methoxy-1-methyl-4H-benzo[f][1,2,4]triazolo[4,3-a][1,4]diazepin-4-yl)propanoate] as the compound, how does the “Selectivity for Brd2(2) mutants relative to wild type by ITC (FIG. 16)” value [1] read?
Answer: higher selectivity for the mutants relative to wild types

Question: Which results are given for `CC[C@H](C(=O)OC)[C@@H]1N=C(c2ccc(Cl)cc2)c2cc(OC)ccc2-n2c(C)nnc21` (racemic) [Compound 14, (+−)-methyl (S)-2-((S)-6-(4-chlorophenyl)-8-methoxy-1-methyl-4H-benzo[f][1,2,4]triazolo[4,3-a][1,4]diazepin-4-yl)butanoate]?
Answer: ΔTm Brd2(1) (Brd2(1)): 1.0 ± 0.3 K; ΔTm Brd2(2) (Brd2(2)): 0.9 ± 0.4 K; ΔTm Brd4(1) (Brd4(1)): 0.5 ± 0.1 K; ΔTm Brd4(2) (Brd4(2)): 0.1 ± 0.1 K; ΔTm Brd2(1)*(Leu110-Ile) (Brd2(1) Leu110-Ile): 0.5 ± 0.0 K; ΔTm Brd2(1)*(Leu110-Ala) (Brd2(1)*(Leu110-Ala)): 1.8 ± 0.4 K; ΔTm Brd2(2)*(Leu383-Ile) (Brd2(2) Leu383-Ile): 0.9 ± 0.3 K; ΔTm Brd2(2)*(Leu383-Ala) (Brd2(2)*(Leu383-Ala)): 2.4 ± 0.6 K

Source: US20170122958A1, “Enzymes Functional Probes” (University of Dundee, priority 2013, published 2017)
